The text below walks through data of patent publication US10377753B2, “Substituted 4-azaindoles and their use as GluN2B receptor modulators” (Janssen Pharmaceutica NV, priority 2015, dated 2019).

Structures can show the parent of a compound that is named as a salt.

The target of the test is cloned human NR1/NR2B ion channels (Homo sapiens (Human), UniProt Q05586+Q13224). Put plainly: HNR2BC: effects of test articles on cloned human NR1/NR2B ion channels expressed in mammalian cells (FLIPR calcium flux). It counts as cell-based. As to conditions: cloned human NR1/NR2B, Table 5. As for the experimental part: HNR2BC: Effects of Test Articles on Cloned Human NR1/NR2B Ion Channels Expressed in Mammalian Cells
cloned human NR1/NR2B ion channels, sequence (Q13224 27-1484, other chains not shown): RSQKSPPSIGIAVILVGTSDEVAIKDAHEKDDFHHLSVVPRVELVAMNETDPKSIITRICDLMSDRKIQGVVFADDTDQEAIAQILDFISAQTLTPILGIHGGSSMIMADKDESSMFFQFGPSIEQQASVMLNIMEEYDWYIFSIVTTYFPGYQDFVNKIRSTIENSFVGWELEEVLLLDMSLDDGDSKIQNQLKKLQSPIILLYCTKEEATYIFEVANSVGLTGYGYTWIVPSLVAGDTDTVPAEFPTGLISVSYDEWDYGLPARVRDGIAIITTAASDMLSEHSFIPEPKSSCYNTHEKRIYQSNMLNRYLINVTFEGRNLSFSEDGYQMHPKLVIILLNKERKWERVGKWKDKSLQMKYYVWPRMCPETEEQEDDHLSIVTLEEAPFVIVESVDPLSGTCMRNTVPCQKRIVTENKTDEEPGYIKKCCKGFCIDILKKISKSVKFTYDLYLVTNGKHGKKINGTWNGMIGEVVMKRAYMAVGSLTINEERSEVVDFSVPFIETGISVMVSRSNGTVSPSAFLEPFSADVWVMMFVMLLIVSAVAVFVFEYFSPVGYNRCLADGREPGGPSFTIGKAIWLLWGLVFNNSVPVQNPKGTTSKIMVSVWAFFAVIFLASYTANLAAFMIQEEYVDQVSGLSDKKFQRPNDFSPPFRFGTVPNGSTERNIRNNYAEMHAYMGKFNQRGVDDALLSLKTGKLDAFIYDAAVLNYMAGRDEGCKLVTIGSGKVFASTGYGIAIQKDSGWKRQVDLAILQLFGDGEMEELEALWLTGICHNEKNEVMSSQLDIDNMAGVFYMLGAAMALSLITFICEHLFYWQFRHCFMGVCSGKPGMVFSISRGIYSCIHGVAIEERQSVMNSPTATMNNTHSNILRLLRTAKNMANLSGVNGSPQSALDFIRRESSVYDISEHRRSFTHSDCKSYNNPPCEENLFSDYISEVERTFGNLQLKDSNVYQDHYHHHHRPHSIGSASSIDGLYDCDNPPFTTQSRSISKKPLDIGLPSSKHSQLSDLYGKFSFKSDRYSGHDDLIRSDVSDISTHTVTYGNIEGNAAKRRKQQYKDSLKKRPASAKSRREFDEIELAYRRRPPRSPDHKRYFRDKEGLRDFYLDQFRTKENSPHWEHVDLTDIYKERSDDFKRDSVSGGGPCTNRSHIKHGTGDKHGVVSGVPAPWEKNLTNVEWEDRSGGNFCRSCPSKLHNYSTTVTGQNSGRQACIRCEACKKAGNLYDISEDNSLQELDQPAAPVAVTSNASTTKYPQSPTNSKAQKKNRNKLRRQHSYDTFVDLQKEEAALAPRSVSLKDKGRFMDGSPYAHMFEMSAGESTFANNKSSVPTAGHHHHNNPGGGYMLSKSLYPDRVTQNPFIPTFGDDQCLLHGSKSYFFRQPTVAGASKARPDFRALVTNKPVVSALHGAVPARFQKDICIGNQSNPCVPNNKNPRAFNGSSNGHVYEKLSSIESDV
NMDA receptors are ion channels that are highly permeable to Ca^2+ ions, rendering it possible to monitor NMDA receptor function using cell-based calcium flux assay. In this assay, co-agonists glutamate and glycine are added to cells heterologously expressing human GluN1/GluN2B NMDA receptors to initiate cellular Ca^2+ influx. The time course of the changes in intracellular calcium is measured using a fluorescent dye and a FLIPR (Fluorometric Imaging Plate Reader) device.
Twenty four hours before measurements, the expression of the NMDA receptors in the stable cell line is induced with Tet-On inducible system in the presence of a non-selective NMDA receptor blocker. On the day of the experiment, cell culture media is carefully washed and the cells are loaded with Calcium 5 Dye Kit (Molecular Devices) in dye loading buffer containing 137 mM NaCl, 4 mM KCl, 2 mM CaCl2, 0.5 mM MgCl2, 10 mM HEPES and 5 mM D-glucose; pH 7.4. After 1 h incubation at the room temperature, the dye is washed away with the assay buffer (137 mM NaCl, 4 mM KCl, 2 mM CaCl2, 0.01 mM EDTA, 10 mM HEPES and 5 mM D-glucose; pH 7.4) In the FLIPR TETRA reader, various concentrations of the test compounds are added to the cells for 5 min while fluorescence is monitored to detect potential agonist activity. Next, co-agonists, glutamate and glycine are added for another 5 minutes. The concentration of glutamate corresponding to ˜EC80 is used to maximize the assay's signal window and ability to detect NMDA receptor antagonists and negative allosteric modulators. A saturating concentration (10 μM) of glycine is also present in the assay. […] The fluorescent signal in the presence of test compounds is quantified and normalized to the signal defined by the appropriate control wells.
For the compound `Cc1cccc(-c2cnc3c(Cl)cn(CC(=O)N4CC(F)(F)C4)c3c2)c1` [Example 53, 2-[3-Chloro-6-(m-tolyl)pyrrolo[3,2-b]pyridin-1-yl]-1-(3,3-difluoroazetidin-1-yl)ethanone], the IC50 was 5010 nM.

As to `Cc1cccc(-c2cnc3c(Cl)cn(CC(=O)N4CC(F)C4)c3c2)c1` [Example 54, 2-[3-Chloro-6-(m-tolyl)pyrrolo[3,2-b]pyridin-1-yl]-1-(3-fluoroazetidin-1-yl)ethanone], the IC50 was 63.1 nM.

In the case of `O=C(Cn1cc(Cl)c2ncc(-c3ccccc3)cc21)N1CC(F)(F)C1` [Example 55, 2-(3-Chloro-6-phenyl-pyrrolo[3,2-b]pyridin-1-yl)-1-(3,3-difluoroazetidin-1-yl)ethanone], the IC50 was 31.6 nM.

As for `O=C(Cn1cc(Cl)c2ncc(-c3ccccc3)cc21)N1CC(F)C1` [Example 56, 2-(3-Chloro-6-phenyl-pyrrolo[3,2-b]pyridin-1-yl)-1-(3-fluoroazetidin-1-yl)ethanone], the IC50 is 50.1 nM.

As for `O=C(Cn1cc(Cl)c2ncc(-c3ccc(F)cc3)cc21)N1CC(F)(F)C1` [Example 57, 2-[3-Chloro-6-(4-fluorophenyl)pyrrolo[3,2-b]pyridin-1-yl]-1-(3,3-difluoroazetidin-1-yl)ethanone], the half-maximal inhibitory concentration (IC50) was 31.6 nM.

`O=C(Cn1cc(Cl)c2ncc(-c3ccc(F)cc3)cc21)N1CC(F)C1` [Example 58, 2-[3-Chloro-6-(4-fluorophenyl)pyrrolo[3,2-b]pyridin-1-yl]-1-(3-fluoroazetidin-1-yl)ethanone]: the IC50 was 25.1 nM.

Regarding `Cc1cc(Cn2ccc3ncc(-c4ccc(F)cc4C)cc32)no1` [Example 59, 3-[[6-(4-Fluoro-2-methyl-phenyl)pyrrolo[3,2-b]pyridin-1-yl]methyl]-5-methyl-isoxazole], the half-maximal inhibitory concentration (IC50) is 39.8 nM.

Take `Cc1cc(Cn2ccc3ncc(-c4cccc(C(F)(F)F)c4)cc32)no1` [Example 60, 5-Methyl-3-[[6-[3-(trifluoromethyl)phenyl]pyrrolo[3,2-b]pyridin-1-yl]methyl]isoxazole]: the IC50 was 100 nM.

In the case of `Cc1cccc(-c2cnc3ccn(Cc4cc(C)on4)c3c2)c1` [Example 61, 5-Methyl-3-[[6-(m-tolyl)pyrrolo[3,2-b]pyridin-1-yl]methyl]isoxazole trifluoroacetate salt], the half-maximal inhibitory concentration (IC50) is 398 nM.

For the compound `Cc1cc(Cn2ccc3ncc(-c4ccccc4C)cc32)no1` [Example 62, 5-Methyl-3-[[6-(o-tolyl)pyrrolo[3,2-b]pyridin-1-yl]methyl]isoxazole trifluoroacetate salt], the IC50 is 126 nM.

In the case of `Cc1cc(Cn2ccc3ncc(-c4ccc(F)c(C)c4)cc32)no1` [Example 63, 3-[[6-(4-Fluoro-3-methyl-phenyl)pyrrolo[3,2-b]pyridin-1-yl]methyl]-5-methyl-isoxazole trifluoroacetate salt], the IC50 is 200 nM.

With `Cc1cc(Cn2ccc3ncc(-c4cc(F)cc(F)c4)cc32)no1` [Example 64, 3-[[6-(3,5-Difluorophenyl)pyrrolo[3,2-b]pyridin-1-yl]methyl]-5-methyl-isoxazole trifluoroacetate salt], the IC50 was 63.1 nM.

Regarding `Cc1cc(Cn2ccc3ncc(-c4ccc(F)cc4)cc32)no1` [Example 65, 3-[[6-(4-Fluorophenyl)pyrrolo[3,2-b]pyridin-1-yl]methyl]-5-methyl-isoxazole trifluoroacetate salt], the IC50 is 79.4 nM.

Regarding `Cc1cc(-c2cnc3ccn(CC(=O)NC4CCC4)c3c2)ccc1F` [Example 66, N-Cyclobutyl-2-[6-(4-fluoro-3-methyl-phenyl)pyrrolo[3,2-b]pyridin-1-yl]acetamide trifluoroacetate salt], the IC50 is 200 nM.

For `Cc1cc(-c2cnc3c(Br)cn(CC(=O)N4CCC4)c3c2)ccc1F` [Example 68, 1-(Azetidin-1-yl)-2-[3-bromo-6-(4-fluoro-3-methyl-phenyl)pyrrolo[3,2-b]pyridin-1-yl]ethanone], the 50% inhibitory concentration (IC50) was 39.8 nM.

In the case of `Cc1cc(-c2cnc3c(F)cn(CC(=O)N4CCC4)c3c2)ccc1F` [Example 69, 1-(Azetidin-1-yl)-2-[3-fluoro-6-(4-fluoro-3-methyl-phenyl)pyrrolo[3,2-b]pyridin-1-yl]ethanone], the IC50 was 25.1 nM.

Turning to `Cc1cc(-c2cnc3ccn(CC(=O)O)c3c2)ccc1F` [Example 70, 2-[6-(4-Fluoro-3-methyl-phenyl)pyrrolo[3,2-b]pyridin-1-yl]acetic acid], the IC50 was 50.1 nM.

For `O=C(Cn1ccc2ncc(-c3ccccc3F)cc21)N1CCC1` [Example 71, 1-(azetidin-1-yl)-2-[6-(2-fluorophenyl)pyrrolo[3,2-b]pyridin-1-yl]ethanone], the IC50 was 7940 nM.

Take `O=C(Cn1ccc2ncc(-c3cccc(F)c3)cc21)N1CCC1` [Example 72, 1-(Azetidin-1-yl)-2-[6-(3-fluorophenyl)pyrrolo[3,2-b]pyridin-1-yl]ethanone]: the IC50 is 251 nM.

As for `Cc1ccc(-c2cnc3ccn(CC(=O)N4CCC4)c3c2)cc1` [Example 73, 1-(Azetidin-1-yl)-2-[6-(p-tolyl)pyrrolo[3,2-b]pyridin-1-yl]ethanone], the half-maximal inhibitory concentration (IC50) is 39.8 nM.

Take `CCc1cccc(-c2cnc3ccn(CC(=O)N4CCC4)c3c2)c1` [Example 74, 1-(Azetidin-1-yl)-2-[6-(3-ethylphenyl)pyrrolo[3,2-b]pyridin-1-yl]ethanone]: the half-inhibitory concentration (IC50) is 200 nM.

On to `O=C(Cn1ccc2ncc(-c3ccccc3F)cc21)NC1CC1` [Example 75, N-Cyclopropyl-2-[6-(2-fluorophenyl)pyrrolo[3,2-b]pyridin-1-yl]acetamide], for which the concentration for half-maximal inhibition (IC50) is 50.1 nM.

Turning to `O=C(Cn1ccc2ncc(-c3cccc(F)c3)cc21)NC1CC1` [Example 76, N-Cyclopropyl-2-[6-(3-fluorophenyl)pyrrolo[3,2-b]pyridin-1-yl]acetamide], the half-inhibitory concentration (IC50) was 1000 nM.

Consider `Cc1ccc(-c2cnc3ccn(CC(=O)NC4CC4)c3c2)cc1` [Example 77, N-Cyclopropyl-2-[6-(p-tolyl)pyrrolo[3,2-b]pyridin-1-yl]acetamide], for which the IC50 was 251 nM.

Take `O=C(Cn1ccc2ncc(-c3ccccc3)cc21)N1CCCC1` [Example 78, 2-(6-Phenylpyrrolo[3,2-b]pyridin-1-yl)-1-pyrrolidin-1-yl-ethanone]: the IC50 is 1580 nM.

Take `O=C(Cn1ccc2ncc(-c3ccccc3F)cc21)N1CCCC1` [Example 79, 2-[6-(2-Fluorophenyl)pyrrolo[3,2-b]pyridin-1-yl]-1-pyrrolidin-1-yl-ethanone]: the IC50 is 79.4 nM.

Consider `O=C(Cn1ccc2ncc(-c3ccc(F)cc3)cc21)N1CCCC1` [Example 80, 2-[6-(4-Fluorophenyl)pyrrolo[3,2-b]pyridin-1-yl]-1-pyrrolidin-1-yl-ethanone], for which the half-inhibitory concentration (IC50) was 316 nM.

Consider `Cc1cccc(-c2cnc3ccn(CC(=O)N4CCCC4)c3c2)c1` [Example 81, 2-[6-(m-Tolyl)pyrrolo[3,2-b]pyridin-1-yl]-1-pyrrolidin-1-yl-ethanone], for which the IC50 is 316 nM.

As for `Cc1ccc(-c2cnc3ccn(CC(=O)N4CCCC4)c3c2)cc1` [Example 82, 2-[6-(p-Tolyl)pyrrolo[3,2-b]pyridin-1-yl]-1-pyrrolidin-1-yl-ethanone], the IC50 is 63.1 nM.

Turning to `CCc1cccc(-c2cnc3ccn(CC(=O)N4CCCC4)c3c2)c1` [Example 83, 2-[6-(3-Ethylphenyl)pyrrolo[3,2-b]pyridin-1-yl]-1-pyrrolidin-1-yl-ethanone], the IC50 is 251 nM.
